Active and inactive are the calls of the source. The calls are words filed in the database; no cut-off is given here.
Legend:
[1] = tested on: Rattus norvegicus; assay: Anti-inflammatory activity in Sprague-Dawley rat model of LPS-induced acute lung injury assessed as reduction in morphological changes in lungs at 20 mg/kg, po administered daily for 1 week followed by LPS addition at 30 mins post last dose measured after 6 hrs by hematoxylin and eosin staining based light microscopic assay; format: functional, organism-based
[2] = tested on: Peritoneal macrophage; assay: Anti-inflammatory activity in C57BL/6 mouse primary peritoneal macrophages assessed as inhibition of LPS-induced IL-6 secretion at 2.5 uM preincubated for 30 mins followed by LPS addition measured after 24 hrs by ELISA relative to control; format: functional; conditions: C57BL/6, Peritoneal macrophage
[3] = tested on: Peritoneal macrophage; assay: Inhibition of LPS-induced IL-1beta mRNA expression in C57BL/6 mouse primary peritoneal macrophages at 10 uM preincubated for 30 mins followed by LPS addition measured after 24 hrs by qRT-PCR analysis; format: functional, cell-based
[4] = Chemical stability in pH 7.4 phosphate buffer at 20 uM measured at 5 mins time intervals for 25 mins by UV absorbance spectroscopic method; format: physicochemical; conditions: pH 7.4, 25 min
[5] = tested on: Rattus norvegicus; assay: Anti-inflammatory activity in Sprague-Dawley rat model of LPS-induced acute lung injury assessed as reduction in neutrophil extravasation in lungs by measuring tissue myeloperoxidase activity at 20 mg/kg, po administered daily for 1 week followed by LPS addition at 30 mins post last dose measured after 6 hrs by spectrophotometric method; format: functional; design: scale not given: the % may be the effect or the level left
[6] = molecular target: Mitogen-activated protein kinase 1 (Homo sapiens) (UniProt P28482); assay: Inhibition of recombinant human full length N-terminal GST-tagged ERK2 (1 to 360 end residues) expressed in Escherichia coli at 0.1 uM after 1 hr by caliper mobility shift assay relative to control
Mitogen-activated protein kinase 1 (Homo sapiens), sequence (P28482 whole entry): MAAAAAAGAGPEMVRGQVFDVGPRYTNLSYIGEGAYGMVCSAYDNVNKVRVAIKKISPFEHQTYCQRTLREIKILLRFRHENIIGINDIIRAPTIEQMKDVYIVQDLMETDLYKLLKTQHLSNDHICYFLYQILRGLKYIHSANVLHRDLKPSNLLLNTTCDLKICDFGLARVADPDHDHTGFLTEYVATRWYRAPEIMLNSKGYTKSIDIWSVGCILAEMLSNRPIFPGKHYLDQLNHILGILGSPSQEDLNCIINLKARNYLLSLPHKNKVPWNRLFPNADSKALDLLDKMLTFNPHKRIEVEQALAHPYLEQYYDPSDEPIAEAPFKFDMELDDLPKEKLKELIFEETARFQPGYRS

[7] = tested on: Peritoneal macrophage; assay: Anti-inflammatory activity in C57BL/6 mouse primary peritoneal macrophages assessed as inhibition of LPS-induced TNFalpha secretion at 1 to 10 uM preincubated for 30 mins followed by LPS addition measured after 24 hrs by ELISA; format: functional, cell-based
[8] = molecular target: Mitogen-activated protein kinase 1 (Homo sapiens) (UniProt P28482); assay: Inhibition of recombinant human full length N-terminal GST-tagged ERK2 (1 to 360 end residues) expressed in Escherichia coli at 10 uM after 1 hr by caliper mobility shift assay relative to control
[9] = tested on: Peritoneal macrophage; assay: Anti-inflammatory activity in C57BL/6 mouse primary peritoneal macrophages assessed as inhibition of LPS-induced IL-6 secretion at 10 uM preincubated for 30 mins followed by LPS addition measured after 24 hrs by ELISA relative to control; format: functional; conditions: C57BL/6, Peritoneal macrophage
[10] = tested on: Peritoneal macrophage; assay: Inhibition of LPS-induced COX2 mRNA expression in C57BL/6 mouse primary peritoneal macrophages at 10 uM preincubated for 30 mins followed by LPS addition measured after 24 hrs by qRT-PCR analysis; format: functional, cell-based
[11] = molecular target: Interleukin-1 receptor-associated kinase 1 (Homo sapiens) (UniProt P51617); assay: Inhibition of recombinant human N-terminal GST-tagged IRAK1 (194 to 712 residues) expressed in baculovirus expression system at 1 uM after 1 hr by caliper mobility shift assay relative to control
Interleukin-1 receptor-associated kinase 1 (Homo sapiens), sequence (P51617 whole entry, looked up, the tested form may be a part): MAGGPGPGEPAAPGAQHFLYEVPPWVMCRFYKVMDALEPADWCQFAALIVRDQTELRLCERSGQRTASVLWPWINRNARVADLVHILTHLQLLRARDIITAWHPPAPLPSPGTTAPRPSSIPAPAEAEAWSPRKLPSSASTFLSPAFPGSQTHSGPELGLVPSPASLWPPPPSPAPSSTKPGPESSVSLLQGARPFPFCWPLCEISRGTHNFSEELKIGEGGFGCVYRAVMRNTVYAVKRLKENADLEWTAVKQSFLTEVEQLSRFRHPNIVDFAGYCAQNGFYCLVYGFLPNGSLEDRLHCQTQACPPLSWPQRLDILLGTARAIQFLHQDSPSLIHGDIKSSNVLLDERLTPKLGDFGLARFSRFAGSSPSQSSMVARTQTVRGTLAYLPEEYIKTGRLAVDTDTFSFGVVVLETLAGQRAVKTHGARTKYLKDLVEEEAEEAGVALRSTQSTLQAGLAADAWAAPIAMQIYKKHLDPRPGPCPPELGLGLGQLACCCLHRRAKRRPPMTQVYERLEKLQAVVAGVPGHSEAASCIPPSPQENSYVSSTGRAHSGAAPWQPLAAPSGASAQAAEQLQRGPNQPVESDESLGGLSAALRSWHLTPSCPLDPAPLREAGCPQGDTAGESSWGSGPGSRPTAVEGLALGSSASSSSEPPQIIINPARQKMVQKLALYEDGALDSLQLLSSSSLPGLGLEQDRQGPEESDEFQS

[12] = tested on: Rattus norvegicus; assay: Anti-inflammatory activity in Sprague-Dawley rat model of LPS-induced acute lung injury assessed as reduction in TNFalpha level in serum at 20 mg/kg, po administered daily for 1 week followed by LPS addition at 30 mins post last dose measured after 6 hrs by ELISA; format: functional, organism-based
[13] = tested on: Rattus norvegicus; assay: Anti-inflammatory activity in Sprague-Dawley rat model of LPS-induced acute lung injury assessed as reduction in TNFalpha level in BALF at 20 mg/kg, po administered daily for 1 week followed by LPS addition at 30 mins post last dose measured after 6 hrs by ELISA; format: functional, organism-based
[14] = tested on: Rattus norvegicus; assay: Anti-inflammatory activity in Sprague-Dawley rat model of LPS-induced acute lung injury assessed as reduction in IL-1beta mRNA level in lungs at 20 mg/kg, po administered daily for 1 week followed by LPS addition at 30 mins post last dose measured after 6 hrs by qRT-PCR method; format: functional, organism-based
[15] = tested on: Rattus norvegicus; assay: Anti-inflammatory activity in Sprague-Dawley rat model of LPS-induced acute lung injury assessed as reduction in VCAM1 mRNA level in lungs at 20 mg/kg, po administered daily for 1 week followed by LPS addition at 30 mins post last dose measured after 6 hrs by qRT-PCR method; format: functional, organism-based
[16] = tested on: Rattus norvegicus; assay: Anti-inflammatory activity in Sprague-Dawley rat model of LPS-induced acute lung injury assessed as reduction in ICAM1 mRNA level in lungs at 20 mg/kg, po administered daily for 1 week followed by LPS addition at 30 mins post last dose measured after 6 hrs by qRT-PCR method; format: functional, organism-based

SMILES	Activity [1]	inhibition at 2.5 µM [2] [%]	inhibition [3]	Stability [4]	Activity [5] [%]	inhibition [6] [%]	inhibition [7]	inhibition [8] [%]	inhibition at 10 µM [9] [%]	inhibition [10]	inhibition [11] [%]	Activity [12]	Activity [13]	Activity [14]	Activity [15]	Activity [16]
COc1cc(/C=C2\COC/C(=C\c3cc(OC)c(OC)c(OC)c3)C2=O)cc(OC)c1OC	Active	> 50	Active	Stable	40	21.3	Active	7.4	> 90	Active	8.7					
COc1cc(/C=C2\CN(C)C/C(=C\c3cc(OC)c(OC)c(OC)c3)C2=O)cc(OC)c1OC	Active	> 50	Active	Stable	40	11.7	Active	8.7	> 90	Active	8.7	Active	Active	Active	Active	Active

Source: ChEMBL document CHEMBL4196029, “New MD2 inhibitors derived from curcumin with improved anti-inflammatory activity” (Eur J Med Chem, 2018)
